In patent US20240150377A1, “MODULATORS OF CYSTIC FIBROSIS TRANSMEMBRANE CONDUCTANCE REGULATOR” (VERTEX PHARMACEUTICALS INCORPORATED, priority 2020, published 2024):
Read-outs that look alike come from different tables or passages of the source.

Biological target: CFTR (Homo sapiens, UniProt P13569)
Assay: Membrane potential dye, Enteroid Assay B
Type: cell-based
Details: for EC50: read-out: Ent. B EC50; for Ent. B Max Activity: chloride transport as % of triple combination control (Enteroid Assay B)
Outline: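 Human intestinal enteroids were treated with compound in maintenance medium for 18-24 h at 37° C, then loaded with methyl oxonol membrane-potential dye (25 min, room temperature). Chloride transport was triggered in chloride-free buffer with 10 μM forskolin, 100 μM IBMX and 300 nM Compound III, fluorescence read 15 min; expressed as % of triple-combination control.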

[1] = Table 8, human enteroid cells, 18-24 hours, acute 10 μM forskolin and 300 nM ivacaftor
[2] = Table 7, human enteroid cells, 18-24 hours, acute 10 μM forskolin and 300 nM ivacaftor

Sequence of CFTR (P13569 with tags, fused parts or gaps DEL508-508): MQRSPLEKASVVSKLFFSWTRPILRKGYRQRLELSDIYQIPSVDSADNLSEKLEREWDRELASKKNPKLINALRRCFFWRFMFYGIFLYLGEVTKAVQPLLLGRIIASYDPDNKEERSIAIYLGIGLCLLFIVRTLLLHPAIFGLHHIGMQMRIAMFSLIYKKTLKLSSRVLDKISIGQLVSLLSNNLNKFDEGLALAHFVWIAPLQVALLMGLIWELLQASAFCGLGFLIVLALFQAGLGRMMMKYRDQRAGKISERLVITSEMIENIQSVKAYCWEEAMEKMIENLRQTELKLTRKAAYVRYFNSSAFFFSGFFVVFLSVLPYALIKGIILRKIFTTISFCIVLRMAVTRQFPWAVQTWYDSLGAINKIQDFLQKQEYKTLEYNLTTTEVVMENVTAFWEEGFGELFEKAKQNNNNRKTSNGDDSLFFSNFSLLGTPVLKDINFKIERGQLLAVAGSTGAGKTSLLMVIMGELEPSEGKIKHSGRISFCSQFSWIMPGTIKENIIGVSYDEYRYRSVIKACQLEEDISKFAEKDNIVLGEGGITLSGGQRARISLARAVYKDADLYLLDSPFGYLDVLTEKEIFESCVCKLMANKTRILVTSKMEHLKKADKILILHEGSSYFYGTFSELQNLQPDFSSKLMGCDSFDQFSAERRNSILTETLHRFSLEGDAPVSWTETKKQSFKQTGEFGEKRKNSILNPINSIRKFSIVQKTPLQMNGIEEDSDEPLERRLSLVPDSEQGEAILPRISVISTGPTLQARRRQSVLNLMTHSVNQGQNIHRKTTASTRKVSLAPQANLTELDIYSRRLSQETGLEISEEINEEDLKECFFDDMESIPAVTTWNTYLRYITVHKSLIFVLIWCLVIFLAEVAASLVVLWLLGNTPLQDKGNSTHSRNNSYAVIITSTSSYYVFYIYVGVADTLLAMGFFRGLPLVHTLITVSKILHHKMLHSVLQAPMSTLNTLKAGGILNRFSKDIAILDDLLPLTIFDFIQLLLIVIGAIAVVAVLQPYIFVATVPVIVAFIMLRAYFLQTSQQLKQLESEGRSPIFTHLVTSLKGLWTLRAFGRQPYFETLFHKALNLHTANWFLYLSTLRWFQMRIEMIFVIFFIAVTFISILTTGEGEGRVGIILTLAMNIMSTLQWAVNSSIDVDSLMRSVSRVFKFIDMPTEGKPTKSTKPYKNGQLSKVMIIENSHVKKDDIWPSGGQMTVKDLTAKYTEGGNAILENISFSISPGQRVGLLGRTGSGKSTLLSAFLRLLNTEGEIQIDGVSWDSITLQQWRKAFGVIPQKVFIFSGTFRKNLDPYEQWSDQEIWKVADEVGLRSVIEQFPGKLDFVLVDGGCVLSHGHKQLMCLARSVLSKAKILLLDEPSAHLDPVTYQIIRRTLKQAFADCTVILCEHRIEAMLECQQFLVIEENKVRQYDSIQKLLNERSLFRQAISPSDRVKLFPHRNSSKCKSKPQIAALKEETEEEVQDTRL

Row | Ent. B Max Activity (%) (Table 9) | EC50 (Table 9) [nM] | Ent. B Max Activity (Table 8) | EC50 [1] [nM] | Compound | further results
1 | +++ (+++ is >600%) | < 1000 | – | – | Cc1cccc(C)c1-c1cc2nc(n1)NS(=O)(=O)c1cccc(c1)C(=O)N(Cc1ccc(-c3csc(OC(C)C)n3)cc1)[C@H](CC(C)(C)C)CO2 [Compound 318] | –
2 | – | – | +++ (+++ is >60%) | < 1000 | Cc1cccc(C)c1-c1cc2nc(n1)NS(=O)(=O)c1cccc(n1)C(=O)N(Cc1ccccc1)[C@H](CC(C)(C)C)CO2 [Compound 1085] | –
3 | – | – | +++ (+++ is >60%) | < 1000 | Cc1cccc(C)c1-c1cc2nc(n1)NS(=O)(=O)c1cccc(n1)C(=O)N(Cc1ccncn1)[C@H](CC(C)(C)C)CO2 [Compound 1091] | –
4 | +++ (+++ is >600%) | < 1000 | – | – | Cc1cccc(C)c1-c1cc2nc(n1)NS(=O)(=O)c1cccc(c1)C(=O)N(Cc1cccc(N)n1)[C@H](CC(C)(C)C)CO2 [Compound 125, (11R)-12-[(6-Amino-2-pyridyl)methyl]-6-(2,6-dimethylphenyl)-11-(2,2-dimethylpropyl)-2,2-dioxo-9-oxa-2λ^6-thia-3,5,12,19-tetrazatricyclo[12.3.1.14,8]nonadeca-1(18),4(19),5,7,14,16-hexaen-13-one] | –
5 | +++ (+++ is >600%) | < 1000 | – | – | Cc1cccc(C)c1-c1cc2nc(n1)NS(=O)(=O)c1cccc(c1)C(=O)N(Cc1ccc(N)nc1)[C@H](CC(C)(C)C)CO2 [Compound 387] | –
6 | – | – | +++ (+++ is >60%) | < 1000 | Cc1cccc(C)c1-c1cc2nc(n1)NS(=O)(=O)c1cccc(c1)C(=O)N(CC1CCC(C)(O)CC1)[C@H](CC(C)(C)C)CO2 (single isomer, unassigned) [Compound 150] | –
7 | – | – | +++ (+++ is >60%) | < 1000 | Cc1cccc(C)c1-c1cc2nc(n1)NS(=O)(=O)c1cccc(c1)C(=O)N(CC1CC(C)(O)C1)[C@H](CC(C)(C)C)CO2 (stereo partly drawn) [Compound 664] | –
8 | – | – | ++ (++ is 30-60%) | < 1000 | Cc1cccc(C)c1-c1cc2nc(n1)NS(=O)(=O)c1cccc(c1)C(=O)N(CCc1ccc(C(N)=O)cc1)[C@H](CC(C)(C)C)CO2 [Compound 396] | –
9 | +++ (+++ is >600%) | < 1000 | – | – | Cc1cccc(C)c1-c1cc2nc(n1)NS(=O)(=O)c1cccc(c1)C(=O)N(Cc1ccc(CC(=O)N(C)C)cc1)[C@H](CC(C)(C)C)CO2 [Compound 845] | –
10 | +++ (+++ is >600%) | < 1000 | – | – | Cc1cccc(C)c1-c1cc2nc(n1)NS(=O)(=O)c1cccc(c1)C(=O)N(Cc1ccc(C(F)(F)F)cn1)[C@H](CC(C)(C)C)CO2 [Compound 806] | –
11 | – | – | +++ (+++ is >60%) | < 1000 | CNC(=O)c1ccc(CN2C(=O)c3cccc(c3)S(=O)(=O)Nc3nc(cc(-c4c(C)cccc4C)n3)OC[C@H]2CC(C)(C)C)nc1 [Compound 397] | –
12 | – | – | +++ (+++ is >60%) | < 1000 | Cc1cccc(C)c1-c1cc2nc(n1)NS(=O)(=O)c1cccc(c1)C(=O)N(Cc1ccc(C(N)=O)cn1)[C@H](CC(C)(C)C)CO2 [Compound 398] | –
13 | – | – | ++ (++ is 30-60%) | < 1000 | Cc1cccc(C)c1-c1cc2nc(n1)NS(=O)(=O)c1cc(nn1C)C(=O)N(Cc1ccccn1)[C@H](CC(C)(C)C)CO2 [Compound 934] | –
14 | – | – | +++ (+++ is >60%) | < 1000 | Cc1cccc(C)c1-c1cc2nc(n1)NS(=O)(=O)c1cccc(c1)C(=O)N(CCC(C)(C)C(C)(C)O)[C@H](CC(C)(C)C)CO2 [Compound 334] | –
15 | +++ (+++ is >600%) | < 1000 | – | – | Cc1cccc(C)c1-c1cc2nc(n1)NS(=O)(=O)c1cccc(c1)C(=O)N(CCCS(C)(=O)=O)[C@H](CC(C)C)CO2 [Compound 389] | –
16 | – | – | +++ (+++ is >60%) | < 1000 | Cc1cccc(C)c1-c1cc2nc(n1)NS(=O)(=O)c1cccc(c1)C(=O)N(CCc1ccc(C(=O)N(C)C)cc1)[C@H](CC(C)(C)C)CO2 [Compound 394] | –
17 | +++ (+++ is >600%) | < 1000 | – | – | Cc1cccc(C)c1-c1cc2nc(n1)NS(=O)(=O)c1cccc(c1)C(=O)N(Cc1ncc(Cl)cn1)[C@H](CC(C)(C)C)CO2 [Compound 805] | –
18 | – | – | ++ (++ is 30-60%) | 3000 to 30000 | CCOC(=O)CCCCN1C(=O)c2cc(nn2C)S(=O)(=O)Nc2nc(cc(-c3c(C)cccc3C)n2)OC[C@H]1CC(C)(C)C [Compound 922] | –
19 | +++ (+++ is >600%) | < 1000 | – | – | Cc1cccc(C)c1-c1cc2nc(n1)NS(=O)(=O)c1cccc(c1)C(=O)N(Cc1ncccc1N)[C@H](CC(C)(C)C)CO2 [Compound 390] | –
20 | +++ (+++ is >600%) | < 1000 | – | – | Cc1cccc(C)c1-c1cc2nc(n1)NS(=O)(=O)c1cccc(c1)C(=O)N(Cc1ncccc1NC(=O)OC(C)C)[C@H](CC(C)(C)C)CO2 [Compound 392] | –

Further lines, the compound ahead of its results:

Row | Compound | Ent. B Max Activity (%) (Table 9) | EC50 (Table 9) [nM] | Ent. B Max Activity (Table 8) | EC50 [1] [nM] | further results
21 | CC(=O)Nc1cccnc1CN1C(=O)c2cccc(c2)S(=O)(=O)Nc2nc(cc(-c3c(C)cccc3C)n2)OC[C@H]1CC(C)(C)C [Compound 393] | +++ (+++ is >600%) | < 1000 | – | – | –
22 | COC(=O)NCCCN1C(=O)c2cccc(c2)S(=O)(=O)Nc2nc(cc(-c3c(C)cccc3C)n2)OC[C@H]1CC(C)C [Compound 409] | – | – | – | – | Ent. B Max Activity (Table 7): +++ (+++ is >60%); EC50 [2]: < 1000 nM
23 | Cc1cccc(C)c1-c1cc2nc(n1)NS(=O)(=O)c1cccc(c1)C(=O)N(CC1CC(O)(Cc3ccccc3)C1)[C@H](CC(C)(C)C)CO2 (single isomer, unassigned) [Compound 68] | +++ (+++ is >600%) | < 1000 | – | – | –
24 | Cc1cccc(C)c1-c1cc2nc(n1)NS(=O)(=O)c1cccc(c1)C(=O)N(CCCC(C)(C)O)[C@H](CCC(C)(C)O)CO2 [Compound 660] | – | – | + (+ is <30%) | – | –
25 | Cc1cccc(C)c1-c1cc2nc(n1)NS(=O)(=O)c1cccc(c1)C(=O)N(CC1CN(C(=O)CO)C1)[C@H](CC(C)(C)C)CO2 [Compound 319] | + (+ is <300%) | 3000 to 30000 | – | – | –
26 | CCCc1ccc(CN2C(=O)c3cccc(c3)S(=O)(=O)Nc3nc(cc(-c4c(C)cccc4C)n3)OC[C@H]2CC(C)(C)C)cc1 [Compound 793] | +++ (+++ is >600%) | – | – | – | –
27 | COCCCN1C(=O)c2cccc(c2)S(=O)(=O)Nc2nc(cc(-c3c(C)cccc3C)n2)OC[C@H]1CC(C)C [Compound 980] | – | – | +++ (+++ is >60%) | < 1000 | –
28 | Cc1cccc(C)c1-c1cc2nc(n1)NS(=O)(=O)c1cccc(c1)C(=O)N(CCCOC(F)(F)F)[C@H](CC(C)C)CO2 [Compound 42, (11R)-6-(2,6-Dimethylphenyl)-11-isobutyl-2,2-dioxo-12-[3-(trifluoromethoxy)propyl]-9-oxa-2λ^6-thia-3,5,12,19-tetrazatricyclo[12.3.1.14,8]nonadeca-1(18),4(19),5,7,14,16-hexaen-13-one] | – | – | +++ (+++ is >60%) | < 1000 | –
29 | Cc1cccc(C)c1-c1cc2nc(n1)NS(=O)(=O)c1cccc(c1)C(=O)N(Cc1ccccn1)[C@H](CC(C)(C)C)CO2 [Compound 124, (11R)-6-(2,6-Dimethylphenyl)-11-(2,2-dimethylpropyl)-12-[(pyridin-2-yl)methyl]-9-oxa-2λ^6-thia-3,5,12,19-tetraazatricyclo[12.3.1.14,8]nonadeca-1(17),4,6,8(19),14(18),15-hexaene-2,2,13-trione] | – | – | +++ (+++ is >60%) | < 1000 | –
30 | Cc1cccc(C)c1-c1cc2nc(n1)NS(=O)(=O)c1cccc(c1)C(=O)N(Cc1cnc(C(C)(C)C)nc1)[C@H](CC(C)(C)C)CO2 [Compound 788] | +++ (+++ is >600%) | < 1000 | – | – | –
31 | Cc1cccc(C)c1-c1cc2nc(n1)NS(=O)(=O)c1cccc(c1)C(=O)N(Cc1ncccn1)[C@H](CC(C)(C)O)CO2 [Compound 658] | – | – | +++ (+++ is >60%) | 1000 to 3000 | –
32 | Cc1cccc(C)c1-c1cc2nc(n1)NS(=O)(=O)c1cccc(c1)C(=O)N(Cc1ccc(C(C)(C)O)cc1)[C@H](CC(C)(C)C)CO2 [Compound 1094] | – | – | +++ (+++ is >60%) | < 1000 | –
33 | Cc1cccc(C)c1-c1cc2nc(n1)NSc1cccc(c1)C(=O)N(Cc1ccc(C(C)(C)O)nc1)[C@H](CC(C)(C)C(F)(F)F)CO2 [Compound 320] | +++ (+++ is >600%) | < 1000 | – | – | –
34 | COc1ncc(CN2C(=O)c3cccc(c3)S(=O)(=O)Nc3nc(cc(-c4c(C)cccc4C)n3)OC[C@H]2CC(C)(C)C)cn1 [Compound 1101] | – | – | +++ (+++ is >60%) | < 1000 | –
35 | Cc1cccc(C)c1-c1cc2nc(n1)NS(=O)(=O)c1cccc(c1)C(=O)N(CCOC(F)(F)F)[C@H](CC(C)C)CO2 [Compound 1103] | – | – | – | – | Ent. B Max Activity (Table 7): +++ (+++ is >60%); EC50 [2]: < 1000 nM
36 | Cc1cccc(C)c1-c1cc2nc(n1)NS(=O)(=O)c1cccc(c1)C(=O)N(Cc1ccc3c(c1)oc(=O)n3C)[C@H](CC(C)(C)C)CO2 [Compound 802] | +++ (+++ is >600%) | < 1000 | – | – | –
37 | Cc1cccc(C)c1-c1cc2nc(n1)NS(=O)(=O)c1cccc(c1)C(=O)N(Cc1ccnc(NC(=O)OC(C)C)c1)[C@H](CC(C)(C)C)CO2 [Compound 1088] | – | – | +++ (+++ is >60%) | < 1000 | –
38 | Cc1cccc(C)c1-c1cc2nc(n1)NS(=O)(=O)c1cccc(c1)C(=O)N(Cc1ccc(C(=O)N(C)C)cn1)[C@H](CC(C)(C)C)CO2 [Compound 1110] | – | – | +++ (+++ is >60%) | < 1000 | –
39 | COC(=O)N1CCn2ncc(CN3C(=O)c4cccc(c4)S(=O)(=O)Nc4nc(cc(-c5c(C)cccc5C)n4)OC[C@H]3CC(C)(C)C)c2C1 [Compound 403] | – | – | +++ (+++ is >60%) | < 1000 | –
40 | Cc1cccc(C)c1-c1cc2nc(n1)NS(=O)(=O)c1cccc(c1)C(=O)N(CCS(C)(=O)=O)[C@H](CC(C)C)CO2 [Compound 388] | +++ (+++ is >600%) | < 1000 | – | – | –
